Experimental data taken from the NIST ThermoML archive (doi:10.1016/j.jct.2007.04.005).
± gives the expanded uncertainty stated by the source.

Experiment: xn = mol fraction of the nth substance listed
Conditions: 298.15 K, Liquid

Compound: CCCCCCCCC [nonane] + C1CCCCC1
- mass density (18340 kPa, x2 = 0.7052): 760.7 ± 1.2 kg/m3
- mass density (18340 kPa, x2 = 0.7993): 768 ± 1.2 kg/m3
- mass density (18340 kPa, x2 = 0.9039): 777.3 ± 1.1 kg/m3
- mass density (20370 kPa, x2 = 0): 728.6 ± 1.5 kg/m3
- mass density (20370 kPa, x2 = 0.09303): 731.6 ± 1.5 kg/m3
- mass density (20370 kPa, x2 = 0.2009): 735.7 ± 1.5 kg/m3
- mass density (20370 kPa, x2 = 0.3051): 740 ± 1.4 kg/m3
- mass density (20370 kPa, x2 = 0.417): 745.1 ± 1.4 kg/m3
- mass density (20370 kPa, x2 = 0.512): 749.8 ± 1.4 kg/m3
- mass density (20370 kPa, x2 = 0.5996): 755.2 ± 1.3 kg/m3
- mass density (20370 kPa, x2 = 0.7052): 762.1 ± 1.3 kg/m3
- mass density (20370 kPa, x2 = 0.7993): 769.4 ± 1.2 kg/m3
- mass density (20370 kPa, x2 = 0.9039): 778.8 ± 1.2 kg/m3
- mass density (22390 kPa, x2 = 0): 730 ± 1.6 kg/m3
- mass density (22390 kPa, x2 = 0.09303): 732.9 ± 1.6 kg/m3
- mass density (22390 kPa, x2 = 0.2009): 737.1 ± 1.5 kg/m3
- mass density (22390 kPa, x2 = 0.3051): 741.4 ± 1.5 kg/m3
- mass density (22390 kPa, x2 = 0.417): 746.5 ± 1.5 kg/m3
- mass density (22390 kPa, x2 = 0.512): 751.3 ± 1.4 kg/m3
- mass density (22390 kPa, x2 = 0.5996): 756.6 ± 1.4 kg/m3
- mass density (22390 kPa, x2 = 0.7052): 763.5 ± 1.3 kg/m3
- mass density (22390 kPa, x2 = 0.7993): 770.8 ± 1.3 kg/m3
- mass density (22390 kPa, x2 = 0.9039): 780.2 ± 1.3 kg/m3
- mass density (24420 kPa, x2 = 0): 731.3 ± 1.7 kg/m3
- mass density (24420 kPa, x2 = 0.09303): 734.2 ± 1.6 kg/m3
- mass density (24420 kPa, x2 = 0.2009): 738.4 ± 1.6 kg/m3
- mass density (24420 kPa, x2 = 0.3051): 742.7 ± 1.6 kg/m3
- mass density (24420 kPa, x2 = 0.417): 747.9 ± 1.5 kg/m3
- mass density (24420 kPa, x2 = 0.512): 752.6 ± 1.5 kg/m3
- mass density (24420 kPa, x2 = 0.5996): 758 ± 1.5 kg/m3
- mass density (24420 kPa, x2 = 0.7052): 764.9 ± 1.4 kg/m3
- mass density (24420 kPa, x2 = 0.7993): 772.2 ± 1.4 kg/m3
- mass density (24420 kPa, x2 = 0.9039): 781.6 ± 1.3 kg/m3
- mass density (26450 kPa, x2 = 0): 732.6 ± 1.7 kg/m3
- mass density (26450 kPa, x2 = 0.09303): 735.6 ± 1.7 kg/m3
- mass density (26450 kPa, x2 = 0.2009): 739.8 ± 1.7 kg/m3
- mass density (26450 kPa, x2 = 0.3051): 744.1 ± 1.6 kg/m3
- mass density (26450 kPa, x2 = 0.417): 749.2 ± 1.6 kg/m3
- mass density (26450 kPa, x2 = 0.512): 753.9 ± 1.6 kg/m3
- mass density (26450 kPa, x2 = 0.5996): 759.3 ± 1.5 kg/m3
- mass density (26450 kPa, x2 = 0.7052): 766.3 ± 1.5 kg/m3
- mass density (26450 kPa, x2 = 0.7993): 773.5 ± 1.4 kg/m3
- mass density (26450 kPa, x2 = 0.9039): 783 ± 1.4 kg/m3
- mass density (28470 kPa, x2 = 0): 733.9 ± 1.8 kg/m3
- mass density (28470 kPa, x2 = 0.09303): 736.9 ± 1.8 kg/m3
- mass density (28470 kPa, x2 = 0.2009): 741.1 ± 1.8 kg/m3
- mass density (28470 kPa, x2 = 0.3051): 745.3 ± 1.7 kg/m3
- mass density (28470 kPa, x2 = 0.417): 750.5 ± 1.7 kg/m3
- mass density (28470 kPa, x2 = 0.512): 755.2 ± 1.6 kg/m3
- mass density (28470 kPa, x2 = 0.5996): 760.6 ± 1.6 kg/m3
- mass density (28470 kPa, x2 = 0.7052): 767.6 ± 1.5 kg/m3
- mass density (28470 kPa, x2 = 0.7993): 774.9 ± 1.5 kg/m3
- mass density (28470 kPa, x2 = 0.9039): 784.3 ± 1.4 kg/m3
- mass density (29490 kPa, x2 = 0): 734.5 ± 1.9 kg/m3
- mass density (29490 kPa, x2 = 0.09303): 737.5 ± 1.8 kg/m3
- mass density (29490 kPa, x2 = 0.2009): 741.7 ± 1.8 kg/m3
- mass density (29490 kPa, x2 = 0.3051): 746 ± 1.8 kg/m3
- mass density (29490 kPa, x2 = 0.417): 751.1 ± 1.7 kg/m3
- mass density (29490 kPa, x2 = 0.512): 755.8 ± 1.7 kg/m3
- mass density (29490 kPa, x2 = 0.5996): 761.3 ± 1.6 kg/m3
- mass density (29490 kPa, x2 = 0.7052): 768.2 ± 1.6 kg/m3
- mass density (29490 kPa, x2 = 0.7993): 775.5 ± 1.5 kg/m3
- mass density (29490 kPa, x2 = 0.9039): 785 ± 1.5 kg/m3
- mass density (30500 kPa, x2 = 0): 735.1 ± 1.9 kg/m3
- mass density (30500 kPa, x2 = 0.09303): 738.1 ± 1.9 kg/m3
- mass density (30500 kPa, x2 = 0.2009): 742.3 ± 1.8 kg/m3
- mass density (30500 kPa, x2 = 0.3051): 746.6 ± 1.8 kg/m3
- mass density (30500 kPa, x2 = 0.417): 751.8 ± 1.7 kg/m3
- mass density (30500 kPa, x2 = 0.512): 756.5 ± 1.7 kg/m3
- mass density (30500 kPa, x2 = 0.5996): 761.9 ± 1.7 kg/m3
- mass density (30500 kPa, x2 = 0.7052): 768.9 ± 1.6 kg/m3
- mass density (30500 kPa, x2 = 0.7993): 776.2 ± 1.6 kg/m3
- mass density (30500 kPa, x2 = 0.9039): 785.7 ± 1.5 kg/m3
- mass density (32530 kPa, x2 = 0): 736.4 ± 2 kg/m3
- mass density (32530 kPa, x2 = 0.09303): 739.4 ± 1.9 kg/m3
- mass density (32530 kPa, x2 = 0.2009): 743.6 ± 1.9 kg/m3
- mass density (32530 kPa, x2 = 0.3051): 747.9 ± 1.9 kg/m3
- mass density (32530 kPa, x2 = 0.417): 753 ± 1.8 kg/m3
- mass density (32530 kPa, x2 = 0.512): 757.7 ± 1.8 kg/m3
- mass density (32530 kPa, x2 = 0.5996): 763.2 ± 1.7 kg/m3
- mass density (32530 kPa, x2 = 0.7052): 770.2 ± 1.7 kg/m3
- mass density (32530 kPa, x2 = 0.7993): 777.5 ± 1.6 kg/m3
- mass density (32530 kPa, x2 = 0.9039): 787 ± 1.5 kg/m3
- mass density (34550 kPa, x2 = 0): 737.6 ± 2 kg/m3
- mass density (34550 kPa, x2 = 0.09303): 740.7 ± 2 kg/m3
- mass density (34550 kPa, x2 = 0.2009): 744.8 ± 2 kg/m3
- mass density (34550 kPa, x2 = 0.3051): 749.1 ± 1.9 kg/m3
- mass density (34550 kPa, x2 = 0.417): 754.3 ± 1.9 kg/m3
- mass density (34550 kPa, x2 = 0.512): 759 ± 1.8 kg/m3
- mass density (34550 kPa, x2 = 0.5996): 764.5 ± 1.8 kg/m3
- mass density (34550 kPa, x2 = 0.7052): 771.5 ± 1.7 kg/m3
- mass density (34550 kPa, x2 = 0.7993): 778.7 ± 1.7 kg/m3
- mass density (34550 kPa, x2 = 0.9039): 788.2 ± 1.6 kg/m3
- mass density (36580 kPa, x2 = 0): 738.8 ± 2.1 kg/m3
- mass density (36580 kPa, x2 = 0.09303): 741.8 ± 2.1 kg/m3
- mass density (36580 kPa, x2 = 0.2009): 746 ± 2 kg/m3
- mass density (36580 kPa, x2 = 0.3051): 750.3 ± 2 kg/m3
- mass density (36580 kPa, x2 = 0.417): 755.5 ± 1.9 kg/m3
- mass density (36580 kPa, x2 = 0.512): 760.2 ± 1.9 kg/m3
- mass density (36580 kPa, x2 = 0.5996): 765.7 ± 1.9 kg/m3
- mass density (36580 kPa, x2 = 0.7052): 772.7 ± 1.8 kg/m3
- mass density (36580 kPa, x2 = 0.7993): 780 ± 1.7 kg/m3
- mass density (36580 kPa, x2 = 0.9039): 789.5 ± 1.7 kg/m3
- mass density (38600 kPa, x2 = 0): 740 ± 2.2 kg/m3
- mass density (38600 kPa, x2 = 0.09303): 743 ± 2.2 kg/m3
- mass density (38600 kPa, x2 = 0.2009): 747.2 ± 2.1 kg/m3
- mass density (38600 kPa, x2 = 0.3051): 751.5 ± 2.1 kg/m3
- mass density (38600 kPa, x2 = 0.417): 756.7 ± 2 kg/m3
- mass density (38600 kPa, x2 = 0.512): 761.4 ± 2 kg/m3
- mass density (38600 kPa, x2 = 0.5996): 766.9 ± 1.9 kg/m3
- mass density (38600 kPa, x2 = 0.7052): 773.9 ± 1.9 kg/m3
- mass density (38600 kPa, x2 = 0.7993): 781.4 ± 1.8 kg/m3
- mass density (38600 kPa, x2 = 0.9039): 790.7 ± 1.7 kg/m3
- mass density (39620 kPa, x2 = 0): 740.6 ± 2.2 kg/m3
- mass density (39620 kPa, x2 = 0.09303): 743.6 ± 2.2 kg/m3
- mass density (39620 kPa, x2 = 0.2009): 747.8 ± 2.1 kg/m3
- mass density (39620 kPa, x2 = 0.3051): 752.1 ± 2.1 kg/m3
- mass density (39620 kPa, x2 = 0.417): 757.3 ± 2.1 kg/m3
- mass density (39620 kPa, x2 = 0.512): 762 ± 2 kg/m3
- mass density (39620 kPa, x2 = 0.5996): 767.5 ± 2 kg/m3
- mass density (39620 kPa, x2 = 0.7052): 774.5 ± 1.9 kg/m3
- mass density (39620 kPa, x2 = 0.9039): 791.3 ± 1.7 kg/m3
